SMILES strings stand for the structures.

This experiment addresses T1, Cbl-b (Homo sapiens, UniProt Q13191).
T1 construct: gene CBLB; TKBD-LHR-RING (38–427) and full-length (1–982)
The experiment in a line: FP-based displacement assay (fluorescent probe). Type of experiment: binding.

T1 sequence (Q13191 38-427): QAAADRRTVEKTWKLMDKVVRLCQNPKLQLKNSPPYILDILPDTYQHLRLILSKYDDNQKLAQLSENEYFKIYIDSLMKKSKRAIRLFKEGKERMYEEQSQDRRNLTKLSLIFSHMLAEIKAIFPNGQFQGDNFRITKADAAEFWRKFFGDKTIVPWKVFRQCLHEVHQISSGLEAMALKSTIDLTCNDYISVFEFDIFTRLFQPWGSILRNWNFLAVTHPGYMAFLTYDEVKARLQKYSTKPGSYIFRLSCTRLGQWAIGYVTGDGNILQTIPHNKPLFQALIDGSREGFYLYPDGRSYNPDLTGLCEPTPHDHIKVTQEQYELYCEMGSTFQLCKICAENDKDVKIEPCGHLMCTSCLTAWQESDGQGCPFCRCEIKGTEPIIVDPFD

Turning to `CC1=CC(C)=[N+]2C1=Cc1ccc(CCC(=O)NCCOCCOCCOCCNCc3ccc(C(=O)Nc4cccc([C@H](C)Cc5nncn5C)c4)nc3C3CC3)n1[B-]2(F)F` [C7102], the “FP-based displacement assay (fluorescent probe)” value was “C7683 displaced binding of C7102 to both TKBD-LHR-RING and full-length proteins in a concentration dependent manner”.

Values taken from PMC10725504, “The co-crystal structure of Cbl-b and a small-molecule inhibitor reveals the mechanism of Cbl-b inhibition” (Communications Biology, 2023).
